This assay has as its system P388 leukemia ip, CD2F1 mice, survival T/C. The experiment in a line: NCI In Vivo Anticancer Drug Screen. Data for tumor model P388 Leukemia (intraperitoneal) in CD2F1 (CDF1) mice. Particulars: endpoint: median survival time, higher = longer survival. The essentials: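 Mice carrying the transplanted tumor received test compound or vehicle. Survival was recorded in each group, and the value is the treated-group measurement divided by that of the vehicle-treated control group.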

Where [1] appears, read: dose: 50.0 mg/kg/injection, schedule: Q01DX009 (ip), vehicle: Klucel (hydroxypropylcellulose) (HPC).
[2] abbreviates: dose: 100.0 mg/kg/injection, schedule: Q01DX009 (ip), vehicle: Klucel (hydroxypropylcellulose) (HPC).
[3] abbreviates: dose: 60.0 mg/kg/injection, schedule: Q01DX005 (ip), vehicle: saline with Tween-80.
The mark [4] stands for this setting: dose: 120.0 mg/kg/injection, schedule: Q01DX005 (ip), vehicle: saline with Tween-80.
The mark [5] stands for this setting: dose: 25.0 mg/kg/injection, schedule: Q01DX009 (ip), vehicle: saline with Tween-80.
Setting [6] is: dose: 50.0 mg/kg/injection, schedule: Q01DX005 (ip), vehicle: saline with Tween-80.

Each structure is given as a SMILES string. Values joined by “and” are separate entries in the source; they are usually repeats but may differ in a detail not shown here. Identical values can stand only once. Inconclusive results and toxic doses are left out.

Turning to `O=C1N[C@@H]([C@H]2CC[C@H](Cl)CN2)C(=O)N[C@H]1[C@H]1CC[C@H](Cl)CN1`, the T/C was 118 % of control (dose: 0.25 mg/kg/injection, schedule: Q01DX005 (iv), vehicle: saline); 158 % of control and 182 % of control (dose: 0.39 mg/kg/injection, schedule: Q01DX009 (ip), vehicle: water); 118 % of control (dose: 0.5 mg/kg/injection, schedule: Q01DX005 (iv), vehicle: saline); 184 % of control and 214 % of control (dose: 0.78 mg/kg/injection, schedule: Q01DX009 (ip), vehicle: water); 123 % of control (dose: 1.0 mg/kg/injection, schedule: Q01DX001 (ip), vehicle: saline); 181 % of control (dose: 1.0 mg/kg/injection, schedule: Q01DX005 (ip), vehicle: saline). For the same molecule, the T/C was 120 % of control (dose: 1.0 mg/kg/injection, schedule: Q01DX005 (iv), vehicle: saline); 122 % of control and 223 % of control (dose: 1.56 mg/kg/injection, schedule: Q01DX009 (ip), vehicle: water); 123 % of control (dose: 2.0 mg/kg/injection, schedule: Q01DX001 (ip), vehicle: saline); 227 % of control (dose: 2.0 mg/kg/injection, schedule: Q01DX005 (ip), vehicle: saline); 157 % of control (dose: 2.0 mg/kg/injection, schedule: Q01DX005 (iv), vehicle: saline); 180 % of control (dose: 2.0 mg/kg/injection, schedule: Q01DX005 (oral), vehicle: saline). For the same molecule, the T/C is, setting by setting: (dose: 4.0 mg/kg/injection, schedule: Q01DX001 (ip), vehicle: saline) 151 % of control; (dose: 4.0 mg/kg/injection, schedule: Q01DX005 (ip), vehicle: saline) 100 % of control; (dose: 4.0 mg/kg/injection, schedule: Q01DX005 (iv), vehicle: saline) 200 % of control; (dose: 4.4 mg/kg/injection, schedule: Q01DX001 (ip), vehicle: saline) 172 % of control and 176 % of control and 177 % of control; (dose: 6.7 mg/kg/injection, schedule: Q01DX001 (ip), vehicle: saline) 172 % of control and 190 % of control and 211 % of control; (dose: 10.0 mg/kg/injection, schedule: Q01DX001 (ip), vehicle: saline) 216 % of control and 220 % of control and 250 % of control. In addition, the T/C (dose: 16.0 mg/kg/injection, schedule: Q01DX001 (ip), vehicle: saline) was 209 % of control.

In the case of `CNC(=O)OCc1c(COC(=O)NC)c(-c2ccc(Cl)c(Cl)c2)n2c1CCC2`, the T/C reads like this: (dose: 12.5 mg/kg/injection, schedule: Q01DX009 (ip), vehicle: Klucel (hydroxypropylcellulose) (HPC)) 153 % of control; (dose: 25.0 mg/kg/injection, schedule: Q01DX009 (ip), vehicle: Klucel (hydroxypropylcellulose) (HPC)) 160 % of control; under setting [1], 155 % of control; under setting [2], 188 % of control.

On to `O=S(=O)(c1ccc2ccccc2c1)N(CCCCCN(S(=O)(=O)c1ccc2ccccc2c1)S(=O)(=O)c1ccc2ccccc2c1)S(=O)(=O)c1ccc2ccccc2c1`, for which the T/C reads like this: under setting [3], 104 % of control; under setting [4], 94 % of control.

As for `CCCCOC(=O)C1CSSCC(NC(C)=O)C(=O)N1` (centres undefined), the T/C runs as follows: (dose: 17.5 mg/kg/injection, schedule: Q01DX005 (ip), vehicle: Klucel (hydroxypropylcellulose) (HPC)) 101 % of control; (dose: 35.0 mg/kg/injection, schedule: Q01DX005 (ip), vehicle: Klucel (hydroxypropylcellulose) (HPC)) 102 % of control; (dose: 70.0 mg/kg/injection, schedule: Q01DX005 (ip), vehicle: Klucel (hydroxypropylcellulose) (HPC)) 108 % of control.

In the case of `Cc1cc(C)c2c(c1)/C(=C/C(=O)c1ccccc1)C(=O)N2`, the T/C was 100 % of control under setting [1]; 95 % of control under setting [2]; 100 % of control (dose: 200.0 mg/kg/injection, schedule: Q01DX009 (ip), vehicle: Klucel (hydroxypropylcellulose) (HPC)).

As for `Cc1cc(N)c(C)c2ccncc12`, the T/C is 100 % of control (dose: 0.63 mg/kg/injection, schedule: Q01DX009 (ip), vehicle: saline with Tween-80); 90 % of control (dose: 1.25 mg/kg/injection, schedule: Q01DX009 (ip), vehicle: saline with Tween-80); 104 % of control (dose: 2.5 mg/kg/injection, schedule: Q04DX003 (ip), vehicle: saline with Tween-80).

As for `CCc1c(CC(=O)O)c2cc(C)ccc2n1Cc1ccc(Cl)cc1`, the T/C runs as follows: (dose: 12.5 mg/kg/injection, schedule: Q01DX009 (ip), vehicle: saline with Tween-80) 95 % of control; under setting [5], 104 % of control; (dose: 25.0 mg/kg/injection, schedule: Q04DX003 (ip), vehicle: saline with Tween-80) 104 % of control and 95 % of control and 91 % of control; (dose: 50.0 mg/kg/injection, schedule: Q01DX009 (ip), vehicle: saline with Tween-80) 109 % of control; (dose: 50.0 mg/kg/injection, schedule: Q04DX003 (ip), vehicle: saline with Tween-80) 108 % of control and 91 % of control; (dose: 100.0 mg/kg/injection, schedule: Q04DX003 (ip), vehicle: saline with Tween-80) 90 % of control and 108 % of control and 92 % of control. The T/C was 96 % of control (dose: 100.0 mg/kg/injection, schedule: Q04DX003 (ip), vehicle: saline) and 90 % of control (dose: 200.0 mg/kg/injection, schedule: Q04DX003 (ip), vehicle: saline with Tween-80).

For `CCOC(=O)C1C/C(=N\OC(C)=O)c2ccc(OC)c(OC)c2C1` (centres undefined), the T/C reads like this: (dose: 12.5 mg/kg/injection, schedule: Q01DX009 (ip), vehicle: other) 110 % of control; (dose: 25.0 mg/kg/injection, schedule: Q01DX009 (ip), vehicle: other) 101 % of control; (dose: 50.0 mg/kg/injection, schedule: Q01DX009 (ip), vehicle: other) 98 % of control; (dose: 100.0 mg/kg/injection, schedule: Q01DX009 (ip), vehicle: other) 87 % of control; (dose: 200.0 mg/kg/injection, schedule: Q01DX009 (ip), vehicle: other) 88 % of control.

As for `O=c1[nH]c2cc([N+](=O)[O-])ccc2nc1/C=C(\O)c1cccc2ccccc12`, the T/C is 91 % of control (dose: 30.0 mg/kg/injection, schedule: Q01DX005 (ip), vehicle: Klucel + Tween-80); 87 % of control and 94 % of control (dose: 60.0 mg/kg/injection, schedule: Q01DX005 (ip), vehicle: Klucel + Tween-80); 86 % of control (dose: 120.0 mg/kg/injection, schedule: Q01DX005 (ip), vehicle: Klucel + Tween-80); 88 % of control (dose: 240.0 mg/kg/injection, schedule: Q01DX005 (ip), vehicle: Klucel + Tween-80).

On to `O=C(/C=C/c1ccccc1O)/C=C/c1ccccc1O`, for which the T/C is 118 % of control (dose: 8.0 mg/kg/injection, schedule: Q01DX009 (ip), vehicle: saline with Tween-80); 118 % of control (dose: 12.0 mg/kg/injection, schedule: Q01DX009 (ip), vehicle: saline with Tween-80); 113 % of control (dose: 18.0 mg/kg/injection, schedule: Q01DX009 (ip), vehicle: saline with Tween-80); 115 % of control under setting [5].

Turning to `NC(=O)c1[nH]ccc1NCc1ccccc1`, the T/C was 97 % of control under setting [6]; 88 % of control (dose: 100.0 mg/kg/injection, schedule: Q01DX005 (ip), vehicle: saline with Tween-80); 97 % of control (dose: 200.0 mg/kg/injection, schedule: Q01DX005 (ip), vehicle: saline with Tween-80).

Take `N#CC(=O)Nc1ccc(Cl)c(Cl)c1`: the T/C (dose: 7.5 mg/kg/injection, schedule: Q01DX005 (ip), vehicle: Klucel (hydroxypropylcellulose) (HPC)) is 104 % of control; the T/C (dose: 15.0 mg/kg/injection, schedule: Q01DX005 (ip), vehicle: Klucel (hydroxypropylcellulose) (HPC)) was 99 % of control; the T/C (dose: 30.0 mg/kg/injection, schedule: Q01DX005 (ip), vehicle: Klucel (hydroxypropylcellulose) (HPC)) was 100 % of control.

With `N=C(N)SCc1ccc2nsnc2c1`, the T/C is, setting by setting: (dose: 12.5 mg/kg/injection, schedule: Q01DX005 (ip), vehicle: saline with Tween-80) 98 % of control; (dose: 25.0 mg/kg/injection, schedule: Q01DX005 (ip), vehicle: saline with Tween-80) 100 % of control; under setting [6], 98 % of control and 102 % of control.

Turning to `O=C(NC1=NN(Cc2ccccc2)C(=O)C1)c1ccc(S(=O)(=O)F)cc1`, the T/C under setting [3] is 113 % of control and the T/C under setting [4] was 121 % of control.

In the case of `Cc1ccc(-n2c(O)c(N=Nc3ccc(Br)cc3)c(=O)n(-c3ccc(Br)cc3)c2=S)cc1`, the T/C by setting is: (dose: 100.0 mg/kg/injection, schedule: Q04DX002 (ip), vehicle: saline with Tween-80) 96 % of control; (dose: 200.0 mg/kg/injection, schedule: Q04DX002 (ip), vehicle: saline with Tween-80) 99 % of control; (dose: 400.0 mg/kg/injection, schedule: Q04DX002 (ip), vehicle: saline with Tween-80) 94 % of control.

Values taken from PubChem BioAssay AID330 (DTP/NCI, 2004).
